Read-outs that look alike come from different tables or passages of the source.
System: HepG2 cells
Experiment: Glucose uptake Glo Assay, Example 821
Assay type: cell-based
Conditions: for activation at 10 µM / activation at 50 µM: Homo sapiens, 20 min, read-out: % increase in Glucose Uptake
Description: The effect of compounds from the present disclosure on glucose uptake was determined in HepG2 cells (ATCC, HB-8065) using the glucose uptake Glo Assay Kit (Promega, 11343 according to manufacturer instructions. HepG2 cells were cultured in complete DMEM-glucose media (Gibco) supplemented with 10% FBS (37° C. incubator with 5% CO2) and seeded in 96-well plates at 30,000 cells/well. After removing the complete media, 100 μL/well of serum-free, high-glucose DMEM media were added to the wells and incubated overnight (37° C. incubator with 5% CO2). Media was then replaced with 100 μl/well DPBS containing 0.6°/o BSA and starved for 1 hour. Next, DPBS was removed and 45 μl/well of insulin (100 nM) or compounds (10 μM-50 μM) were added to the wells and incubated for 10 minutes (37° C. incubator with 5% CO2). Insulin and compounds were prepared in DPBS with 0.6% BSA with a final DMSO concentration of 0.1%. Next, 5 μl of 2DG (10 mM) in DPBS were added per well and allowed to incubate for 20 minutes followed by addition of 25 μl stop buffer. 37.5 μl of the mixture were then transferred to a new plate and 12.5 μl of Neutralization buffer added to the wells. After, 50 μl of 2DG6P detection Reagent were added and incubated for 0.5-1 hour at room temperature. Luminescence was measured with 0.3-1 second integration on a luminometer.

For CCOP1(=O)OCC(C)(C)[C@H](C(=O)NCCC(=O)NCCSC(=O)CC(=O)CC(=O)CCC(=O)O)O1 (some centres unmarked) [Compound 183], the activation at 10 µM (10 uM (Example 970)) was no less than 30%.

CC1(C)OCC(C)(C)[C@H](C(=O)NCCC(=O)NCCSC(=O)C(=O)O)O1 [Compound 868] was tested, and the “% increase in Glucose Uptake” value (10 uM (Example 973)) was no less than 30% and the activation at 10 µM (10 uM) was no less than 30%.

CC1(C)COP(=O)(O)O[C@H]1C(=O)NCCC(=O)NCCSC(=O)CC(=O)CCC(=O)O [Compound 3] was tested, and the activation at 10 µM (10 uM) was no less than 10% and the “% increase in Glucose Uptake” value (concentration tested 10 uM) was no less than 10%.

CCOP1(=O)OCC(C)(C)[C@H](C(=O)NCCC(=O)NCCS)O1 (some centres unmarked) [Compound 865] was tested, and the activation at 10 µM (10 uM) was no less than 20% and the “% increase in Glucose Uptake” value (concentration tested 10 uM) was no less than 20%.

With C[C@@H](O)CC(=O)SCCNC(=O)CCNC(=O)[C@@H]1OP(=O)(OCc2ccccc2)OCC1(C)C (some centres unmarked) [Compound 864] the activation at 50 µM (50 uM) was no less than 20% and the “% increase in Glucose Uptake” value (concentration tested 50 uM) was no less than 20%.

COC(=O)[C@H](C)NP1(=O)OCC(C)(C)[C@H](C(=O)NCCC(=O)NCCSC(=O)CC(=O)CC(=O)CCC(=O)O)O1 (some centres unmarked) [Compound 185] gave an activation at 50 µM (50 uM (Example 970)) of no less than 30%.

COC(=O)/C=C/C(=O)SCCNC(=O)CCNC(=O)[C@@H]1OC(C)(C)OCC1(C)C [Compound 858, methyl (2E)-4-oxo-4-[[2-(3-[[(4R)-2,2,5,5-tetramethyl-1,3-dioxan-4-yl]formamido]propanamido)ethyl]sulfanyl]but-2-enoate] was tested, and the “% increase in Glucose Uptake” value (10 uM (Example 973)) was no less than 30% and the activation at 10 µM (10 uM) was no less than 30%.

CC1(C)COC(=O)O[C@H]1C(=O)NCCC(=O)NCCSC(=O)CC(=O)CCC(=O)OCC[N+](C)(C)C [Compound 460] showed an activation at 50 µM (50 uM (Example 969)) of no less than 30%.

CC(=O)CC(=O)SCCNC(=O)CCNC(=O)[C@@H]1OC(C)(C)OCC1(C)C [Compound 860, N-[2-[(3-oxobutanoyl)sulfanyl]ethyl]-3-[[(4R)-2,2,5,5-tetramethyl-1,3-dioxan-4-yl]formamido]propanamide] was tested, and the activation at 50 µM (50 uM) was no less than 10% and the “% increase in Glucose Uptake” value (concentration tested 50 uM) was no less than 10%.

For CCOC(=O)CC(SCCNC(=O)CCNC(=O)[C@@H]1OP(=O)(OC)OCC1(C)C)C(=O)OCC[N+](C)(C)C (some centres unmarked) [Compound 410], the activation at 50 µM (50 uM (Example 969)) was no less than 30%.

With CCCCCCC(=O)SCCNC(=O)CCNC(=O)[C@@H]1OC(C)(C)OCC1(C)C [Compound 855, N-[2-(heptanoylsulfanyl)ethyl]-3-[[(4R)-2,2,5,5-tetramethyl-1,3-dioxan-4-yl]formamido]propanamide] the activation at 50 µM (50 uM) was no less than 30% and the “% increase in Glucose Uptake” value (concentration tested 50 uM) was no less than 30%.

COC(=O)CCC(=O)SCCNC(=O)CCNC(=O)[C@@H]1OP(=O)(OCc2ccccc2)OCC1(C)C (some centres unmarked) [Compound 863] was tested, and the activation at 50 µM (50 uM) was no less than 10% and the “% increase in Glucose Uptake” value (concentration tested 50 uM) was no less than 10%.

For CC(=O)NCCCC(=O)SCCNC(=O)CCNC(=O)[C@@H]1OC(C)(C)OCC1(C)C [Compound 853], the “% increase in Glucose Uptake” value (10 uM (Example 973)) was no less than 30% and the activation at 10 µM (10 uM) was no less than 30%.

C/C=C/C(=O)SCCNC(=O)CCNC(=O)[C@@H]1OP(=O)(N[C@@H](C)C(=O)O)OCC1(C)C (some centres unmarked) [Compound 145] showed an activation at 10 µM (10 uM (Example 970)) of no less than 30%.

For COC(=O)CCC(=O)SCCNC(=O)CCNC(=O)[C@@H]1OC(C)(C)OCC1(C)C [Compound 852, methyl 4-oxo-4-[[2-(3-[[(4R)-2,2,5,5-tetramethyl-1,3-dioxan-4-yl]formamido]propanamido)ethyl]sulfanyl]butanoate], the activation at 50 µM (50 uM) was no less than 20% and the “% increase in Glucose Uptake” value (concentration tested 50 uM) was no less than 20%.

With COC(=O)CC1(C)OCC(C)(C)[C@H](C(=O)NCCC(=O)NCCSC(=O)CCC(=O)O)O1 (some centres unmarked) [Compound 609] the activation at 10 µM (10 uM) was no less than 10% and the “% increase in Glucose Uptake” value (concentration tested 10 uM) was no less than 10%.

COC(=O)CC(SCCNC(=O)CCNC(=O)[C@@H]1OP(=O)(N[C@@H](C)C(=O)OC)OCC1(C)C)C(=O)OC (some centres unmarked) [Compound 370] showed an activation at 50 µM (50 uM (Example 969)) of no less than 30%.

For C/C=C/C(=O)SCCNC(=O)CCNC(=O)[C@@H]1OP(=O)(OC)OCC1(C)C (some centres unmarked) [Compound 141], the activation at 50 µM (50 uM (Example 969)) was no less than 30%.

COC(=O)CC(SCCNC(=O)CCNC(=O)[C@@H]1OC(=O)OCC1(C)C)C(=O)OCC[N+](C)(C)C (some centres unmarked) [Compound 503] showed an activation at 50 µM (50 uM (Example 972)) of no less than 20%.

COC(=O)C(CC(=O)O)SCCNC(=O)CCNC(=O)[C@@H]1OP(=O)(OC)OCC1(C)C (some centres unmarked) [Compound 382] gave an activation at 50 µM (50 uM (Example 970)) of no less than 30%.

For CC1(C)COP(=O)(OCc2ccccc2)O[C@H]1C(=O)NCCC(=O)NCCS (some centres unmarked) [Compound 862], the activation at 10 µM (10 uM) was no less than 20%, the activation at 50 µM (50 uM) was no less than 10% and the “% increase in Glucose Uptake” value (concentration tested 10 uM) was no less than 20%. For the same compound, the “% increase in Glucose Uptake” value (concentration tested 50 uM) was no less than 10%.

C/C=C/C(=O)CC(=O)SCCNC(=O)CCNC(=O)[C@@H]1OP(=O)(OCc2ccccc2)OCC1(C)C (some centres unmarked) [Compound 867] was tested, and the activation at 10 µM (10 uM) was no less than 20% and the “% increase in Glucose Uptake” value (concentration tested 10 uM) was no less than 20%.

In the case of CC1(C)OCC(C)(C)[C@H](C(=O)NCCC(=O)NCCSSCCNC(=O)CCNC(=O)[C@@H]2OC(C)(C)OCC2(C)C)O1 [Compound 870], the activation at 10 µM (10 uM) is reported as no less than 30% and the “% increase in Glucose Uptake” value (concentration tested 10 uM) is reported as no less than 30%.

COC(=O)CC(SCCNC(=O)CCNC(=O)[C@@H]1OP(=O)(OCC[N+](C)(C)C)OCC1(C)C)C(=O)OC (some centres unmarked) [Compound 371] gave an activation at 10 µM (10 uM (Example 969)) of no less than 30%.

COC(=O)CC(SCCNC(=O)CCNC(=O)[C@@H]1OP(=O)(O)OCC1(C)C)C(=O)OCC[N+](C)(C)C (some centres unmarked) [Compound 57] showed an activation at 50 µM (50 uM (Example 971)) of no less than 20%.

With CCOC(=O)CCC(=O)CC(=O)CC(=O)SCCNC(=O)CCNC(=O)[C@@H]1OP(=O)(OC)OCC1(C)C (some centres unmarked) [Compound 211] the activation at 50 µM (50 uM (Example 969)) was no less than 30%.

For CC1(C)COP(=O)(O)O[C@H]1C(=O)NCCC(=O)NCCS [Compound 869], the activation at 10 µM (10 uM) was no less than 10% and the “% increase in Glucose Uptake” value (concentration tested 10 uM) was no less than 10%.

For COC(=O)CC1(C)OCC(C)(C)[C@H](C(=O)NCCC(=O)NCCS)O1 (some centres unmarked) [Compound 866], the “% increase in Glucose Uptake” value (10 uM (Example 973)) was no less than 30% and the activation at 10 µM (10 uM) was no less than 30%.

For C[C@@H](O)CC(=O)SCCNC(=O)CCNC(=O)[C@@H]1OC(=O)OCC1(C)C [Compound 485], the activation at 50 µM (50 uM) was no less than 10% and the “% increase in Glucose Uptake” value (concentration tested 50 uM) was no less than 10%.

In the case of C[C@@H](O)CC(=O)SCCNC(=O)CCNC(=O)[C@@H]1OP(=O)(O)OCC1(C)C [Compound 39], the activation at 50 µM (50 uM) is reported as no less than 10% and the “% increase in Glucose Uptake” value (concentration tested 50 uM) is reported as no less than 10%.

With CCC(=O)SCCNC(=O)CCNC(=O)[C@@H]1OC(C)(C)OCC1(C)C [Compound 861, N-[2-(propanoylsulfanyl)ethyl]-3-[[(4R)-2,2,5,5-tetramethyl-1,3-dioxan-4-yl]formamido]propanamide] the activation at 50 µM (50 uM) was no less than 20% and the “% increase in Glucose Uptake” value (concentration tested 50 uM) was no less than 20%.

CC1(C)COP(=O)(O)O[C@H]1C(=O)NCCC(=O)NCCSC(=O)CCC(=O)O [Compound 1] showed an activation at 10 µM (10 uM (Example 968)) of no less than 30%.

With CC(=O)SCCNC(=O)CCNC(=O)[C@@H]1OP(=O)(O)OCC1(C)C [Compound 2] the activation at 10 µM (10 uM (Example 970)) was no less than 10%.

For COC(=O)C(=O)SCCNC(=O)CCNC(=O)[C@@H]1OC(C)(C)OCC1(C)C [Compound 856], the “% increase in Glucose Uptake” value (10 uM (Example 973)) was no less than 30% and the activation at 10 µM (10 uM) was no less than 30%.

COP1(=O)OCC(C)(C)[C@H](C(=O)NCCC(=O)NCCSC(CC(=O)OCC[N+](C)(C)C)C(=O)O)O1 (some centres unmarked) [Compound 397] gave an activation at 10 µM (10 uM (Example 969)) of no less than 20%.

COC(=O)C(CC(=O)OCC[N+](C)(C)C)SCCNC(=O)CCNC(=O)[C@@H]1OP(=O)(Oc2ccccc2)OCC1(C)C (some centres unmarked) [Compound 393] showed an activation at 10 µM (10 uM (Example 970)) of no less than 30%.

Work on CCOC(=O)CCC(=O)CC(=O)CC(=O)SCCNC(=O)CCNC(=O)[C@@H]1OP(=O)(OCC[N+](C)(C)C)OCC1(C)C (some centres unmarked) [Compound 214] yielded an activation at 10 µM (10 uM (Example 972)) of no less than 20%.

COP1(=O)OCC(C)(C)[C@H](C(=O)NCCC(=O)NCCSC(=O)CC(=O)/C=C/C(=O)O)O1 (some centres unmarked) [Compound 117] gave an activation at 10 µM (10 uM (Example 970)) of no less than 30%.

COC(=O)C(CC(=O)O)SCCNC(=O)CCNC(=O)[C@@H]1OC(=O)OCC1(C)C (some centres unmarked) [Compound 498] was tested, and the activation at 50 µM (50 uM (Example 971)) was no less than 10%.

CC1(C)COP(=O)(O)O[C@H]1C(=O)NCCC(=O)NCCSC(=O)/C=C/C(=O)O [Compound 20] was tested, and the activation at 50 µM (50 uM) was no less than 30% and the “% increase in Glucose Uptake” value (concentration tested 50 uM) was no less than 30%.

Work on C/C=C/C(=O)SCCNC(=O)CCNC(=O)[C@@H]1OP(=O)(N[C@@H](C)C(=O)OC)OCC1(C)C (some centres unmarked) [Compound 144] yielded an activation at 50 µM (50 uM (Example 969)) of no less than 30%.

Work on CCOC(=O)CCC(=O)CC(=O)CC(=O)SCCNC(=O)CCNC(=O)[C@@H]1OP(=O)(N[C@@H](C)C(=O)OC)OCC1(C)C (some centres unmarked) [Compound 213] yielded an activation at 50 µM (50 uM (Example 970)) of no less than 30%.

COC(=O)[C@H](C)NP1(=O)OCC(C)(C)[C@H](C(=O)NCCC(=O)NCCSC(=O)CC(C)=O)O1 (some centres unmarked) [Compound 157] gave an activation at 50 µM (50 uM (Example 971)) of no less than 20%.

With COC(=O)[C@H](C)NP1(=O)OCC(C)(C)[C@H](C(=O)NCCC(=O)NCCSC(=O)CCC(=O)O)O1 (some centres unmarked) [Compound 63] the activation at 50 µM (50 uM (Example 967)) was no less than 30%.

Work on CC(CC(=O)SCCNC(=O)CCNC(=O)[C@@H]1OP(=O)(O)OCC1(C)C)O[C@H](CC(=O)[O-])C[N+](C)(C)C (some centres unmarked) [Compound 47] yielded an activation at 50 µM (50 uM (Example 966)) of no less than 10%.

From US12037354B2, “Cyclic pantetheine derivatives and uses thereof” (VectivBio Comet AG, priority 2018, dated 2024)
